Inconclusive results and toxic doses are left out. No stated cut-off is given here; in the data, active means T/C of 150% or more; inactive means T/C below 125%.
Test system: L1210 leukemia ip in BDF1 mice, survival T/C
Assay: NCI In Vivo Anticancer Drug Screen. Data for tumor model L1210 Leukemia (intraperitoneal) in B6D2F1 (BDF1) mice
Conditions: endpoint: mean survival time, higher = longer survival
Summary of the method: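 Transplanted-tumor mice were given test agent; controls received vehicle only. Survival readings from the two groups were divided (treated over control).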

[1] = dose: 100.0 mg/kg/injection, schedule: Q01DX009 (ip), vehicle: Klucel (hydroxypropylcellulose) (HPC)
[2] = dose: 200.0 mg/kg/injection, schedule: Q01DX009 (ip), vehicle: Klucel (hydroxypropylcellulose) (HPC)
[3] = dose: 400.0 mg/kg/injection, schedule: Q01DX009 (ip), vehicle: Klucel (hydroxypropylcellulose) (HPC)
[4] = dose: 100.0 mg/kg/injection, schedule: Q04DX003 (ip), vehicle: Klucel (hydroxypropylcellulose) (HPC)
[5] = dose: 100.0 mg/kg/injection, schedule: Q04DX003 (ip), vehicle: saline
[6] = dose: 100.0 mg/kg/injection, schedule: Q04DX003 (ip), vehicle: saline with Tween-80
[7] = dose: 200.0 mg/kg/injection, schedule: Q04DX003 (ip), vehicle: saline with Tween-80
[8] = dose: 400.0 mg/kg/injection, schedule: Q04DX003 (ip), vehicle: saline with Tween-80
[9] = dose: 100.0 mg/kg/injection, schedule: Q01DX009 (ip), vehicle: saline with Tween-80
[10] = dose: 200.0 mg/kg/injection, schedule: Q01DX009 (ip), vehicle: saline with Tween-80
[11] = dose: 100.0 mg/kg/injection, schedule: Q01DX001 (ip), vehicle: saline
[12] = dose: 200.0 mg/kg/injection, schedule: Q01DX001 (ip), vehicle: saline
[13] = dose: 400.0 mg/kg/injection, schedule: Q01DX001 (ip), vehicle: saline

Measured: T/C

CN(C)N=Nc1ccc(S(=O)(=O)N(CCCl)CCCl)cc1
inactive: dose: 12.5 mg/kg/injection, schedule: Q04DX002 (ip), vehicle: Klucel (hydroxypropylcellulose) (HPC) 100 % of control | dose: 25.0 mg/kg/injection, schedule: Q04DX002 (ip), vehicle: Klucel (hydroxypropylcellulose) (HPC) 96 % of control | dose: 50.0 mg/kg/injection, schedule: Q04DX002 (ip), vehicle: Klucel (hydroxypropylcellulose) (HPC) 103 % of control | dose: 100.0 mg/kg/injection, schedule: Q04DX002 (ip), vehicle: Klucel (hydroxypropylcellulose) (HPC) 120 % of control | dose: 200.0 mg/kg/injection, schedule: Q04DX002 (ip), vehicle: Klucel (hydroxypropylcellulose) (HPC) 103 % of control | dose: 400.0 mg/kg/injection, schedule: Q04DX002 (ip), vehicle: Klucel (hydroxypropylcellulose) (HPC) 95 % of control

CCCCNC(=O)N(C1CCCCC1)C1CCCCC1
inactive: [1] 103 % of control | [2] 92 % of control | [3] 92 % of control

O=c1[nH]nnc2nc(Cc3ccc([N+](=O)[O-])cc3)[nH]c12
inactive: dose: 100.0 mg/kg/injection, schedule: Q01DX001 (ip), vehicle: saline with Tween-80 98 % of control

COc1ccc2c(c1OC)C1(CCN(C)C)CC(=O)CCC1C=C2 (stereo unspecified)
inactive: dose: 3.12 mg/kg/injection, schedule: Q01DX009 (ip), vehicle: Klucel (hydroxypropylcellulose) (HPC) 103 % of control | dose: 6.25 mg/kg/injection, schedule: Q01DX009 (ip), vehicle: Klucel (hydroxypropylcellulose) (HPC) 95 % of control | dose: 12.5 mg/kg/injection, schedule: Q01DX009 (ip), vehicle: Klucel (hydroxypropylcellulose) (HPC) 98 % of control | dose: 25.0 mg/kg/injection, schedule: Q01DX009 (ip), vehicle: Klucel (hydroxypropylcellulose) (HPC) 86 % of control | [4] 98 % of control

COC1(OC)CCC2(C)C(CCCC2OS(=O)(=O)c2ccc(C)cc2)C1 (stereo unspecified)
inactive: dose: 100.0 mg/kg/injection, schedule: Q01DX001 (ip), vehicle: carboxymethylcellulose (CMC) 97 % of control | dose: 200.0 mg/kg/injection, schedule: Q01DX001 (ip), vehicle: carboxymethylcellulose (CMC) 108 % of control | dose: 400.0 mg/kg/injection, schedule: Q01DX001 (ip), vehicle: carboxymethylcellulose (CMC) 97 % of control

CCC(C)C(CN)(CCCN1CCCCC1)c1cccc2ccccc12 (stereo unspecified)
inactive: [5] 97 % of control | dose: 200.0 mg/kg/injection, schedule: Q04DX003 (ip), vehicle: saline 95 % of control

CCCCC(O)(C#CC(O)(CC)CCCC)CC (stereo unspecified)
inactive: dose: 100.0 mg/kg/injection, schedule: Q01DX001 (ip), vehicle: other 103 % of control | dose: 200.0 mg/kg/injection, schedule: Q01DX001 (ip), vehicle: other 105 % of control | dose: 400.0 mg/kg/injection, schedule: Q01DX001 (ip), vehicle: other 102 % of control

CC(C)/C=N\O
inactive: [6] 104 % of control | [7] 123 % of control | [8] 109 % of control

Nc1ncnc2c1ncn2C1OC(COP(=O)(O)OCC(N)Cc2ccccc2)C(O)C1O (stereo unspecified)
inactive: dose: 100.0 mg/kg/injection, schedule: Q01DX005 (ip), vehicle: saline 87 % of control | dose: 200.0 mg/kg/injection, schedule: Q01DX005 (ip), vehicle: saline 107 % of control

Nc1nc(-c2cccc(NC(=O)c3ccc(S(=O)(=O)F)cc3)c2)nc2[nH]ncc12
inactive: dose: 25.0 mg/kg/injection, schedule: Q01DX001 (ip), vehicle: Klucel (hydroxypropylcellulose) (HPC) 86 % of control | dose: 50.0 mg/kg/injection, schedule: Q01DX001 (ip), vehicle: Klucel (hydroxypropylcellulose) (HPC) 94 % of control | dose: 100.0 mg/kg/injection, schedule: Q01DX001 (ip), vehicle: Klucel (hydroxypropylcellulose) (HPC) 86 % of control

CC(=O)OC(C)(C)Cc1ccccc1
inactive: [9] 90 % of control | [10] 108 % of control

OCC#CC#CCO
inactive: dose: 25.0 mg/kg/injection, schedule: Q01DX009 (ip), vehicle: saline 95 % of control | dose: 50.0 mg/kg/injection, schedule: Q01DX009 (ip), vehicle: saline 115 % of control | dose: 100.0 mg/kg/injection, schedule: Q01DX009 (ip), vehicle: saline 105 % of control | [5] 103 % of control

CC(=O)Nc1ccc(C(C)C)cc1
inactive: [1] 103 % of control | [2] 95 % of control | [3] 94 % of control

CCC(Cl)C(=O)Nc1ccccc1 (stereo unspecified)
inactive: dose: 50.0 mg/kg/injection, schedule: Q01DX001 (ip), vehicle: saline 96 % of control | [11] 108 % of control | [12] 102 % of control | [13] 104 % of control

O=C(Nc1cccc(S(=O)(=O)F)c1)c1ccc(COc2ccc([N+](=O)[O-])cc2Cl)cc1
inactive: dose: 100.0 mg/kg/injection, schedule: Q01DX009 (ip), vehicle: saline sonified 100 % of control | [6] 97 % of control | dose: 200.0 mg/kg/injection, schedule: Q01DX009 (ip), vehicle: saline sonified 100 % of control | [7] 100 % of control | dose: 400.0 mg/kg/injection, schedule: Q01DX009 (ip), vehicle: saline sonified 94 % of control | [8] 94 % of control

O=C(CBr)OCS(=O)(=O)O
inactive: dose: 75.0 mg/kg/injection, schedule: Q01DX001 (ip), vehicle: saline 102 % of control | dose: 150.0 mg/kg/injection, schedule: Q01DX001 (ip), vehicle: saline 96 % of control | dose: 300.0 mg/kg/injection, schedule: Q01DX001 (ip), vehicle: saline 100 % of control

CC(C)(C)c1ccc(CC#N)cc1
inactive: dose: 25.0 mg/kg/injection, schedule: Q04DX003 (ip), vehicle: Klucel (hydroxypropylcellulose) (HPC) 97 % of control | dose: 50.0 mg/kg/injection, schedule: Q04DX003 (ip), vehicle: Klucel (hydroxypropylcellulose) (HPC) 94 % of control | [4] 90 % of control

Nc1ccc(-c2ccc(Nc3cc(S(=O)(=O)O)c(N)c4c3C(=O)c3ccccc3C4=O)cc2)c(S(=O)(=O)O)c1
inactive: dose: 10.0 mg/kg/injection, schedule: Q01DX001 (ip), vehicle: acetone 96 % of control | dose: 20.0 mg/kg/injection, schedule: Q01DX001 (ip), vehicle: acetone 89 % of control | dose: 40.0 mg/kg/injection, schedule: Q01DX001 (ip), vehicle: acetone 100 % of control

Oc1ccc(Cl)cc1N=Cc1ccccc1
inactive: [11] 100 % of control | [12] 105 % of control | [13] 107 % of control

O=C(O)C(Oc1ccccc1)Oc1ccccc1
inactive: dose: 50.0 mg/kg/injection, schedule: Q01DX001 (ip), vehicle: alkali diluted with saline 100 % of control | dose: 100.0 mg/kg/injection, schedule: Q01DX001 (ip), vehicle: alkali diluted with saline 96 % of control | dose: 200.0 mg/kg/injection, schedule: Q01DX001 (ip), vehicle: alkali diluted with saline 100 % of control | dose: 400.0 mg/kg/injection, schedule: Q01DX001 (ip), vehicle: alkali diluted with saline 96 % of control

N#Cc1cc[n+](Cc2ccc([N+](=O)[O-])cc2)cc1
inactive: [11] 104 % of control | [12] 98 % of control

COc1ccc(C(C)(C)CC(=O)O)cc1
inactive: dose: 50.0 mg/kg/injection, schedule: Q01DX009 (ip), vehicle: saline with Tween-80 97 % of control | [9] 100 % of control | [10] 90 % of control
